According to patent US8952024B2, “Herbicidal pyrimidone derivatives” (E I du Pont de Nemours and Company, priority 2009, dated 2015):

How the values were obtained:
[1] = test system: spring wheat (Triticum aestivum); assay: Test C plant response; type: in vivo; conditions: Preemergence, scale 0 to 100
[2] = test system: winter wheat (Triticum aestivum); assay: Test C plant response; type: in vivo; conditions: Preemergence, scale 0 to 100

melting point	Compound	Plant response rating: Wheat, Spring ([1]; 62 g ai/ha)	Plant response rating: Wheat, Spring ([1]; 125 g ai/ha)	Plant response rating: Wheat, Spring ([1]; 16 g ai/ha)	Plant response rating: Wheat, Spring ([1]; 31 g ai/ha)	Plant response rating: Wheat, Winter ([2]; 62 g ai/ha)	Plant response rating: Wheat, Winter ([2]; 125 g ai/ha)	Plant response rating: Wheat, Winter ([2]; 16 g ai/ha)	Plant response rating: Wheat, Winter ([2]; 31 g ai/ha)
57 to 58 °C	O=C1CCCC(O)=C1C(=O)c1cnc(-c2ccccc2)n(Cc2ccccc2)c1=O [Compound 17, 5-[(2-hydroxy-6-oxo-1-cyclohexen-1-yl)carbonyl]-2-phenyl-3-(phenylmethyl)-4(3H)-pyrimidinone]								
	Cc1ccccc1-n1c(-c2ccccc2)ncc(C(=O)C2=C(O)CCCC2=O)c1=O [Compound 12]	0	0	0	0	0	0	0	0
